Results as given in patent US20260363987A1, “Novel Peptide Exhibiting Skin Condition Improvement Activity and Cosmetic Composition Containing Same” (DAEBONG LS CO., LTD., priority 2023, published 2026).

What was measured:
HaCaT cells = assay: Hyaluronic acid (HA) production, ELISA; type: cell-based, human
Method: The HaCaT human keratinocyte cell line was obtained from Cell Line Service GmbH (Germany). The cells were cultured in DMEM containing 1% penicillin-streptomycin and 10% fetal bovine serum (FBS) at 37 °C in a 5% CO2 incubator, and subculture was performed every 2 to 3 days.
HaCaT cells were seeded at 1.0×10^5 cells/well in a 24-well plate and incubated for 24 hours at 37 °C in a 5% CO2 incubator. After incubation, the culture medium was replaced with serum-free DMEM, and the peptide prepared in the above Example was applied at concentrations of 50-200 μM, followed by incubation for 24 hours. The supernatant from each experimental group was collected, and the amount of hyaluronic acid (HA) released into the medium was measured. The positive control group was treated with N-acetylglucosamine at a concentration of 10 mM. Measurement of hyaluronic acid production was conducted using a Hyaluronic Acid ELISA Kit (Cusabio Biotechnology Co., Ltd.) following the manufacturer's protocol.

B16F10 cells = assay: Melanin synthesis inhibition in α-MSH-treated melanocytes; type: cell-based, mouse; details: 72 hours
Method: Mouse-derived melanocytes (B16F10 cells) were obtained from the American Type Culture Collection (ATCC) and used. The cells were cultured in Dulbecco's Modified Eagle's Medium (DMEM) supplemented with 1% penicillin-streptomycin and 10% fetal bovine serum (FBS) at 37 °C in a 5% CO2 incubator, and subcultured every 3 to 4 days.
B16F10 cells were seeded at 6.0×10^4 cells/well in a 6-well plate and cultured for 24 hours at 37 °C in a 5% CO2 incubator. The culture medium was then replaced with phenol red-free, serum-free DMEM, followed by treatment with α-MSH, a melanin production-inducing hormone, and the peptide from the above Preparation Example at concentrations ranging from 1 to 100 μM. The cells were incubated for 72 hours, after which they were collected and lysed with 1 N NaOH in an 80 °C heating block to dissolve intracellular melanin. The absorbance of the resulting solution was measured at 490 nm. The control group was treated with arbutin at a concentration of 500 μg/mL.

NHDF cells = assay: Procollagen Type I Peptide (PIP) production, EIA; type: cell-based, human
Method: Normal Human Dermal Fibroblasts (NHDF) were obtained from Lonza (Lonza Walkersville, Inc.) and cultured in FBM (Fibroblast Basal Medium) supplemented with 0.1% hFGF-B, insulin, GA-1000, and 2% FBS at 37 °C in a 5% CO2 incubator. Subculture was performed every 2 to 3 days.
NHDF cells were seeded at 2.0×10^4 cells/well in a 24-well plate and incubated for 24 hours at 37 °C in a 5% CO2 incubator. After incubation, the culture medium was replaced with serum-free FBM, and the peptide prepared in the above Example was applied at concentrations of 1-100 μM, followed by incubation for 24 hours. The supernatant from each experimental group was collected, and the amount of procollagen released into the medium was measured. The positive control group was treated with ascorbic acid at a concentration of 0.001 v/v %. Measurement of procollagen levels was performed using a Procollagen Type I Peptide (PIP) EIA Kit (Takara Biomedical Co.) according to the manufacturer's protocol. The quantitative results of procollagen type I peptide production following treatment with the peptide of the Example are shown in Table 2 and FIG. 3.

CC(=O)N[C@H]1C(O)O[C@H](CO)[C@@H](O)[C@@H]1O (stereo partly shown) [NAG, N-acetylglucosamine, reference compound]
activity at 10000 µM (HaCaT cells; Homo sapiens, HaCaT, 24 h, 10 mM, positive control, untreated group = 100 ± 5.15): 125.5 ± 1.18%

Ala-Ala-Gln-Pro-Arg (AAQPR; printed: Ala-Ala-Gln-Pro-Arg)
Melanin production (B16F10 cells; 1 μM, with α-MSH (200 nM), α-MSH alone = 100 ± 3.6, untreated = 75 ± 3.04): 100.86 ± 4.32% | Melanin production (B16F10 cells; 10 μM, with α-MSH (200 nM), α-MSH alone = 100 ± 3.6, untreated = 75 ± 3.04): 89.62 ± 2.95% | Melanin production (B16F10 cells; 100 μM, with α-MSH (200 nM), α-MSH alone = 100 ± 3.6, untreated = 75 ± 3.04): 79.76 ± 4.18% | melanin production (in words) (B16F10 cells; 1-100 μM, with α-MSH): inhibited melanin production | Hyaluronic acid production (HaCaT cells; 50 μM, 24 hours, untreated group = 100 ± 5.15): 107.14 ± 1.08% | Hyaluronic acid production (HaCaT cells; 100 μM, 24 hours, untreated group = 100 ± 5.15): 130.93 ± 0.59% | Hyaluronic acid production (HaCaT cells; 200 μM, 24 hours, untreated group = 100 ± 5.15): 136.91 ± 6.87% | hyaluronic acid production (in words) (HaCaT cells; 50-200 μM, 24 hours): increase in hyaluronic acid production | Procollagen production (NHDF cells; 1 μM, 24 hours, untreated group = 100 ± 1.29): 105.45 ± 3.15% | Procollagen production (NHDF cells; 10 μM, 24 hours, untreated group = 100 ± 1.29): 129.75 ± 9.74% | Procollagen production (NHDF cells; 50 μM, 24 hours, untreated group = 100 ± 1.29): 132.64 ± 13.74% | Procollagen production (NHDF cells; 100 μM, 24 hours, untreated group = 100 ± 1.29): 134.92 ± 1.3% | procollagen production (in words) (NHDF cells; 1-100 μM, 24 hours): increase in procollagen production

O=C1O[C@H]([C@@H](O)CO)C(O)=C1O [Asc.A, ascorbic acid, reference compound]
activity at 10 µg/mL (NHDF cells; Homo sapiens, NHDF, 24 h, 10 μg/mL, positive control, untreated group = 100 ± 1.29): 159 ± 3.8%

OC[C@H]1O[C@@H](Oc2ccc(O)cc2)[C@H](O)[C@@H](O)[C@@H]1O [Arbutin, arbutin, reference compound]
activity at 500 µg/mL (B16F10 cells; Mus musculus, B16-F10, 500 μg/mL, control, with α-MSH (200 nM), α-MSH alone = 100 ± 3.6, untreated = 75 ± 3.04, read-out: Melanin production): 59.6 ± 0.8%
